This note sets out measurements from paper PMC11375702, “Early Preclinical Studies of Ergosterol Peroxide and Biological Evaluation of Its Derivatives” (ACS Omega, 2024).

Series [1] can be described thus: Plasma protein binding, rapid equilibrium dialysis (human). It is filed as in vitro ADME. As to conditions: read-out: plasma binding (human) protein binding (converted). How it is done:
This assay determines the plasma protein binding of a drug or compound and free drug concentration in plasma using rapid equilibrium dialysis. We use the Single-Use RED (rapid equilibrium dialysis, Thermo Scientific) devices to allow the aqueous component of plasma containing the free drug/compound through a dialysis membrane (MWCO ∼ 8000). Sample quantification is determined using a Waters ACQUITY-SOQ UPLC-MS-ELDS-UV system.

Series [2] has as its system Caco-2 cells. Put plainly: Caco-2 permeability assay. The note with it: Caco-2. The format is in vitro ADME. On the procedure: It was performed in the 96-well Transwell system with a modified method.[36] Caco-2 cells were maintained at 37 °C in a humidified incubator with an atmosphere of 5% CO2. The cells were cultured in MEM containing 20% FBS in […], 100 units/mL penicillin, and 100 μg/mL of streptomycin. The Caco-2 cells were seeded onto inserts of a 96-well plate at a density of 0.5 × 10^5 cells/insert and cultured in the MEM containing 20% FBS for 7 days. Each cultured monolayer on the 96-well plate was washed twice with HBSS/HEPES (10 mM, pH 7.4). The permeability assay was initiated by the addition of each compound solution (10 μmol/L) into inserts (apical side, A) or receivers (basolateral side, B). The Caco-2 cell monolayers were incubated for 2 h at 37 °C. Fractions were collected from receivers (if apical to basal permeability) or inserts (if basal to apical permeability), and concentrations were assessed by UPLC/MS (Waters; Milford, MA). All compounds were tested in triplicates. The A → B (or B → A) apparent permeability coefficients ([…]) of each compound were calculated using the equation Pappa = dQ/dt × 1/AC0. The flux of a drug across the monolayer is dQ/dt (μmol/s). The initial drug concentration on the apical side is C0 (μmol/L). The surface area of the monolayer is A (cm^2).

Series [3] addresses T1, CYP3A4 (Homo sapiens, UniProt P08684).
T1 construct: from tissue; host or cells: pooled human liver microsomes
The series is described as follows: Microsomal CYP inhibition assay, CYP3A4. It is filed as in vitro ADME. As to conditions: pooled human liver microsomes. On the procedure: (§1) To assess potential cardiotoxicity, we performed the human ether-go-go-related gene (hERG) inhibition assay. […] Briefly, EP was tested at six concentrations (cumulative concentration–response). […] For hepatotoxicity determination, we performed the microsomal CYP inhibition assay. Briefly, EP was incubated at seven increasing concentrations with pooled human liver microsomes. […] The supernatants were analyzed by LC-MS/MS.

The target in series [4] is CYP2D6 (Homo sapiens, UniProt P10635). The series is described as follows: Microsomal CYP inhibition assay, CYP2D6. The note with it: pooled human liver microsomes, probe dextromethorphan. The format is in vitro ADME. How it is done:
as §1

Series [5] deals with T2, CYP2C19 (Homo sapiens, UniProt P33261).
T2 construct: from tissue; host or cells: pooled human liver microsomes
T2 sequence (P33261 whole entry): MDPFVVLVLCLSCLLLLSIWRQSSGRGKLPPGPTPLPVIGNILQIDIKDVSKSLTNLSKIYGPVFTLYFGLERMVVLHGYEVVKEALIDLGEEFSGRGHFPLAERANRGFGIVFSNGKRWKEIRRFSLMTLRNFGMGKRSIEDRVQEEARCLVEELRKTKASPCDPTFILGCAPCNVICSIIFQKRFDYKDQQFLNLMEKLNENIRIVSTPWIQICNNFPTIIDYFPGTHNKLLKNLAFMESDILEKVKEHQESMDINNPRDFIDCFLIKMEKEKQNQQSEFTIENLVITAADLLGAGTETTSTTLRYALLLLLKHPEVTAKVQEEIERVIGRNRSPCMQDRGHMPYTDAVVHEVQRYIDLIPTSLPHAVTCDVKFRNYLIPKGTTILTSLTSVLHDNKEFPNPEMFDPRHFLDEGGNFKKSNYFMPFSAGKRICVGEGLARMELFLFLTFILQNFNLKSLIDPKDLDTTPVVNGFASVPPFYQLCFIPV
Put plainly: Microsomal CYP inhibition assay, CYP2C19. The format is in vitro ADME. The note with it: pooled human liver microsomes, probe mephenytoin; read-out: CYP-2C19 inhibition. How it is done: as §1

The conditions of series [6]: Balb/c, mouse and human.
Description: Briefly, pooled blood from 3 animals for experiment (male Balb/c 6–8w from the division of laboratory animal medicine in-house breeding colony) was collected, and the heparinized plasma was prepared. Plasma and test compounds were added to individual wells of a 96-well microtiter plate. Compounds were incubated at 37 °C for the provided time points. All tests were performed in triplicates. The test compound was incubated with plasma at six different time points. The reaction was terminated by methanol containing an internal standard. After centrifugation, the concentration of the test compound in the supernatant was quantified by LC-MS/MS.
Plasma stability assay: Briefly, pooled blood from 3 animals for experiment (male Balb/c 6-8w
from the division of laboratory animal medicine in-house breeding colony) was collected, and
the heparinized plasma was prepared. Plasma and test compounds were added to the individual
wells of a 96-well microtiter plate. Compounds were incubated at 37°C for the provided time
points. All tests were performed in triplicates. Then, the test compound was incubated with
plasma at six different time points. The reaction was terminated by the addition of methanol
containing an internal standard. After centrifugation, the concentration of the test compound in
the supernatant was quantified by LC-MS/MS. The percentage of test compound remaining at
compounds are known to be metabolized by plasma esterases,1 and were also incubated with
each batch of test compound.
A standard protocol and MS method was used for the plasma stability experiment. The extraction
procedure for plasma/tissue samples and the spiked plasma/tissue calibration standards were
identical: A 25 µL of study sample or spiked plasma/tissue calibration standard was added to
individual pre-labeled micro-centrifuge tubes followed by 100 µL of internal standard prepared
in Acetonitrile (Albendazole, 500 ng/mL) was added except for blank, where 100 µL of
Acetonitrile was added. Samples were vortexed for 5 minutes. Samples were centrifuged for 5
minutes at a speed of 4000 rpm at 4°C. Following centrifugation, 100 µL of clear supernatant
was transferred in 96 well plates and analyzed using LC-MS/MS mode. The LC system
comprises of a binary pump that can mix two mobile phases: A = Water+0.1% formic acid; B =
acetonitrile +0.1%formic acid. The system was operated in gradient mode using a 6 minute
min, 10-90% A to B in 5.5-6 min, and then hold at this gradient, using a Phenomenex Luna, 150
X 4.6 mm, 5 µm column. Source Parameter: positive, Ion Spray Voltage 5500, Temperature
550C, interface heater on.

Each structure is given as a SMILES string. Where two headings read alike, the source gives them in different places.

T1 sequence (P08684 whole entry): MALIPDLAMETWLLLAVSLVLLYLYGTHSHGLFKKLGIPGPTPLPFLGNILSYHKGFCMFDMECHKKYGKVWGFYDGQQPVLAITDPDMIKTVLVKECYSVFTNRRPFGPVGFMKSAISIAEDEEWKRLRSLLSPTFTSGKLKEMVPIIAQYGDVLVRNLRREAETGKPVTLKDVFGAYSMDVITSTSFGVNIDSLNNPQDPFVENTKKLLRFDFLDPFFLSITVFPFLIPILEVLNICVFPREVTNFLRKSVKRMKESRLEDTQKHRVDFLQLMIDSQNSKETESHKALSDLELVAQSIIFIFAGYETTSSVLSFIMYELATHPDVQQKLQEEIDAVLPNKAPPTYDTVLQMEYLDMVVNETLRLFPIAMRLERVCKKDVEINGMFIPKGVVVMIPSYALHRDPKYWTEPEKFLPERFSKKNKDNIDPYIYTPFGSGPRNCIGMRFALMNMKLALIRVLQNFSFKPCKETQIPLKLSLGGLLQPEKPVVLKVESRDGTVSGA
CYP2D6, sequence (P10635 whole entry): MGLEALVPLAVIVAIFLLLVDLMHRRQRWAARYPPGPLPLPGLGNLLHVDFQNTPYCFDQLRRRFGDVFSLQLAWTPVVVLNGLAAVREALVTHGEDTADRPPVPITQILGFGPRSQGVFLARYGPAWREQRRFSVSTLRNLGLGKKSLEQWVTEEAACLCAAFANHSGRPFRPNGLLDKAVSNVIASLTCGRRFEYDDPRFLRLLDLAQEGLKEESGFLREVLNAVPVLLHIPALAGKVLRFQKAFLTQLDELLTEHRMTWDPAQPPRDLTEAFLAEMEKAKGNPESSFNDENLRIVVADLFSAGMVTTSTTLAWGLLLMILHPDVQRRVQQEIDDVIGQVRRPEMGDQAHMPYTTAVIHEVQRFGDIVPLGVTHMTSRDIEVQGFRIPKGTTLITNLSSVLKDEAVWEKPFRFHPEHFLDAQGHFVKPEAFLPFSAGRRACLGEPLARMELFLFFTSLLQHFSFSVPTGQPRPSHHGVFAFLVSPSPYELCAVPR

For `CC(C)[C@@H](C)/C=C/[C@@H](C)[C@H]1CC[C@@H]2[C@]1(C)CC[C@H]1[C@]23C=C[C@]2(C[C@@H](O)CC[C@]12C)OO3` [Compound 2, Ergosterol peroxide], the fraction unbound in series [1] is 0.28. Moreover, in series [2], the “efflux ratio (B2A/A2B)” value was determined as 0.93. Besides, the IC50 is greater than 25 µM in series [3] (probe midazolam, read-out: CYP3A4-Midazolam inhibition); greater than 25 µM in series [3] (probe testosterone, read-out: CYP3A4-Testos-terone inhibition); greater than 25 µM in series [4]; 19.9 µM in series [5].
For the molecule `CC(C)[C@@H](C)/C=C/[C@@H](C)[C@H]1CC[C@@H]2[C@]1(C)CC[C@H]1[C@]23C=C[C@]2(CC(=O)CC[C@]12C)OO3` [Compound 3], the plasma stability in series [6] is listed as greater than 48 h.
